The values below come from US6884820B2, “5,6,7,8-tetrahydronaphthalen-2-yl-7-fluoroalkyl-heptatrienoic acid derivatives having serum glucose reducing activity” (Allergan, Inc., priority 2003, dated 2005).

Data set [1] concerns the target T1, RARβ (Homo sapiens, UniProt P10826).
T1 sequence (P10826 1-455): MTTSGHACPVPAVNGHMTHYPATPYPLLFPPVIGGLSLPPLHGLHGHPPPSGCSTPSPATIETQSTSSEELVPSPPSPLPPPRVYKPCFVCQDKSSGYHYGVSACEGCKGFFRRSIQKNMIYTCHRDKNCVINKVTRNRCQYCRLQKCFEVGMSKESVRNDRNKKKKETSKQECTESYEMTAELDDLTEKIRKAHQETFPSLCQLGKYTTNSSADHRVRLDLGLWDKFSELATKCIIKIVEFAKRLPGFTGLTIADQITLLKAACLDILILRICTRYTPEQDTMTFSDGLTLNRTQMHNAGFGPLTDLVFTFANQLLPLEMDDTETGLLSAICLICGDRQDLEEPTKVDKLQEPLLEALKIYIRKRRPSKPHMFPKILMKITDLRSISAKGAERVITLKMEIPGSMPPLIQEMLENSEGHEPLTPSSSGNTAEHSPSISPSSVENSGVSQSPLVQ
Put plainly: ligand binding assay, RARβ.
Description: (§1) The results of the ligand binding assay are expressed in Ki numbers.

For data set [2], the target named is T2, RXRγ (Homo sapiens, UniProt P48443).
T2 sequence (P48443 1-463): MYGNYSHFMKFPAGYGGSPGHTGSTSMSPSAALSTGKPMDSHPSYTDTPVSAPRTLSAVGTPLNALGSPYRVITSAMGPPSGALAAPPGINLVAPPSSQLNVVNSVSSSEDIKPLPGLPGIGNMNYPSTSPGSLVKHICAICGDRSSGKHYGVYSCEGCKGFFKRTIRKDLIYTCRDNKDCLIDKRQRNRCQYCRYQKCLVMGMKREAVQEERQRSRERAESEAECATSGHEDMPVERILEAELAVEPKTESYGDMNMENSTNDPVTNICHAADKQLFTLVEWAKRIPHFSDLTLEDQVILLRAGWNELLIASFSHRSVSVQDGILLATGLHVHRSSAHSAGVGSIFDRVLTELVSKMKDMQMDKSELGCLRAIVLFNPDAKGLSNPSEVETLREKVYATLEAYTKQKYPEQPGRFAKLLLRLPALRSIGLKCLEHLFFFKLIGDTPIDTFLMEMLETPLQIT
Briefly: holoreceptor transactivation assay, RXRγ.
Description: (§2) The results obtained in this assay are expressed in EC50 numbers, as they are also in the chimeric receptor transactivation assay.
(§3) Efficacy in a transactivation assay is expressed as a percentage of the maximum potency attained by the compound compared to a standard which, in this case, is the compound named (2E, 4E, 1′S, 2′S)-3-methyl-5-[2′-methyl-2′-(5,5,8,8-tetramethyl-5,6,7,8-tetrahydro-naphthalen-2-yl)-cyclopropyl]-penta-2,4-dienoic acid.
(§4) Particularly, the transactivation data pertaining to activation of the RAR receptors were obtained in the chimeric assay, and the transactivation data pertaining to the activation of RXR receptors were obtained in the holoreceptor assay.

Data set [3] has as its target T3, RXRα (Homo sapiens, UniProt P19793).
T3 sequence (P19793 1-462): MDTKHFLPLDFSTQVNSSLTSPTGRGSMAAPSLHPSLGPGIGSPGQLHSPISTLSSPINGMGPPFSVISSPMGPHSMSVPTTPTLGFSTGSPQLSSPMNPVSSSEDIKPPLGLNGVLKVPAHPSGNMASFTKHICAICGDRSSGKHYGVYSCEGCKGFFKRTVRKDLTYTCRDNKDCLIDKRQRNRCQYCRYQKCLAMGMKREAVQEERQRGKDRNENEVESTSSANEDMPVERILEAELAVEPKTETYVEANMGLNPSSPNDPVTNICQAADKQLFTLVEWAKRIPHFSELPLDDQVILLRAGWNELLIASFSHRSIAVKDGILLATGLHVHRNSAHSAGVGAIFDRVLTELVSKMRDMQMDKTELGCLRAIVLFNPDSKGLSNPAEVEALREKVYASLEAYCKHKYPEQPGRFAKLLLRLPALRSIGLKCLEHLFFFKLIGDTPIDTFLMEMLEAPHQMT
Put plainly: holoreceptor transactivation assay, RXRα.
Description: as §2, §3, §4

The target of data set [4] is T4, RARγ (Homo sapiens, UniProt P13631).
T4 sequence (P13631 1-454): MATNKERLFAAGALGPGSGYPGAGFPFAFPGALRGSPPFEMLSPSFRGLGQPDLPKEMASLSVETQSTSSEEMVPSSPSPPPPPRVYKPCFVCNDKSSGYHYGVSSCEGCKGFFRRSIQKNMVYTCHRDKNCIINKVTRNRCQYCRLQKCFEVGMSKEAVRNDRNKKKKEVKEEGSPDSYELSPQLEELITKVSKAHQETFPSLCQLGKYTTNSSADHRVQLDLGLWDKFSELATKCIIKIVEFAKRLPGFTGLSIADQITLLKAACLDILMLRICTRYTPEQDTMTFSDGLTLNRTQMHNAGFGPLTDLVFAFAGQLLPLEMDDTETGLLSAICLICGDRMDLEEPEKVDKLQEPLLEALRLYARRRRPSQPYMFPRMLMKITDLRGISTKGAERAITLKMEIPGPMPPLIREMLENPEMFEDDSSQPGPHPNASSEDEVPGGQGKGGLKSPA
Put plainly: ligand binding assay, RARγ.
Description: as §1

Data set [5] concerns the target T5, RXRβ (Homo sapiens, UniProt P28702).
T5 sequence (P28702 1-533): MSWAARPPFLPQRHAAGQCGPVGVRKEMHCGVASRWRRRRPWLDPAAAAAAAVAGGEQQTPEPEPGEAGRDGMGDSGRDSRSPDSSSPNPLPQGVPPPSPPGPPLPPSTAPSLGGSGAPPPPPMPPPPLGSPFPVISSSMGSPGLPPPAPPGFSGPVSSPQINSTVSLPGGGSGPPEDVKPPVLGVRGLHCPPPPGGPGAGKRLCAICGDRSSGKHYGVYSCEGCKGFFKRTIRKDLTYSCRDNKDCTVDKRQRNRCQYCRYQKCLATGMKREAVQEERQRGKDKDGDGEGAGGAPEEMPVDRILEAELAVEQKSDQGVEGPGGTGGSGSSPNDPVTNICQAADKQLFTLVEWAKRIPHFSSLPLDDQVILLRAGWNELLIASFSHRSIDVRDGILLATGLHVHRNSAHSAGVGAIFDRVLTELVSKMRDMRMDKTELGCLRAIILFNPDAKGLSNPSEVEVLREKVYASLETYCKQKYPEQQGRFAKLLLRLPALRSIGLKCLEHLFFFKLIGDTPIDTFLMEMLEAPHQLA
Briefly: holoreceptor transactivation assay, RXRβ.
Description: as §2, §3, §4

Data set [6] concerns the target T6, RARα (Homo sapiens, UniProt P10276).
T6 sequence (P10276 1-462): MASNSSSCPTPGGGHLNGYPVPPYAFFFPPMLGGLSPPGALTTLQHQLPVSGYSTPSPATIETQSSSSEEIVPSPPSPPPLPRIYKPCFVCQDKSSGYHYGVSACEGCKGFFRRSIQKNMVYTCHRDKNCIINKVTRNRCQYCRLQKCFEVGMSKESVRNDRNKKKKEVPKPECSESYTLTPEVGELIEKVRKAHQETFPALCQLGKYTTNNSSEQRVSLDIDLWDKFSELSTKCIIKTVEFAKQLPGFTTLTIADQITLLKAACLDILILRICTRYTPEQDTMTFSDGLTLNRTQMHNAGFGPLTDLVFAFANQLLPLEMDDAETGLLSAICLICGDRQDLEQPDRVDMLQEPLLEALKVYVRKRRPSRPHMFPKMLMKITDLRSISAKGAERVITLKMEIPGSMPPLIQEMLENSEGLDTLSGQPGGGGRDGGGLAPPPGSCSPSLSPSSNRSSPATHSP
Put plainly: ligand binding assay, RARα.
Description: as §1

Data set [7] concerns the target T3, RXRα. Briefly: ligand binding assay, RXRα.
Description: as §1
The target of data set [8] is T7, RARβ (Homo sapiens, UniProt P10826).
T7 sequence (P10826 183-417 limits assumed): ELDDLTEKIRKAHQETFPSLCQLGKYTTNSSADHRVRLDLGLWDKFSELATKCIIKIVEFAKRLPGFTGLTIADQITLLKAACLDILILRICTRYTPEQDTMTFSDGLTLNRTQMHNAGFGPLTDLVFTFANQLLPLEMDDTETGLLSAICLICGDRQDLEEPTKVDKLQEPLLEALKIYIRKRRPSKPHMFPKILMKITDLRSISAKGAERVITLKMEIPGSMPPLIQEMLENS
Briefly: chimeric receptor transactivation assay, RARβ. The following applies: for RAR β transactivation efficacy as a percentage compared to the standard compound: value in parentheses, relative to standard compound of U.S. Pat. No. 6,114,533.
Description: as §3, §4

In data set [9] the target is T5, RXRβ. Briefly: ligand binding assay, RXRβ.
Description: as §1
Data set [10] relates to Female diabetic db/db mice. Briefly: serum glucose, triglyceride and thyroxine levels in female db/db mice.
Protocol: An assay described below tests the effect of compounds of the invention on serum glucose, tryglyceride and thyroxine levels in female 9-10 weeks old db/db mice.
Female diabetic db/db (9-10 weeks old) mice were maintained on standard laboratory food and treated by oral gavage with vehicle (corn oil), standard compound (2E, 4E, 1′S, 2′S)-3-methyl-5-[2′-methyl-2′-(5,5,8,8-tetramethyl-5,6,7,8-tetrahydro-naphthalen-2-yl)-cyclopropyl]-penta-2,4-dienoic acid (5 mg/kg) or the test compound (5-100 mg/kg, as described in Table 2) daily for seven days at 8:00 AM. Blood samples (70 μ) were taken by orbital bleeding at 11:00 AM on day 0 (pre-treatment), day 3, and day 6. On day 7, a blood sample (700 μt) was taken at 11:00 AM and the animals were sacrificed. Glucose, triglyceride and thyroxine (T4) levels were determined on a Boehringer Manheim Hatachi Clinical Chemistry Analyzer using standard protocols provided by the manufacturer and reagents that were supplied in commercially available kits (glucose and T4: Boehringer Manheim; triglycerides: Roche Diagnostics).
Setting [11] is: value in parentheses, relative to standard compound of U.S. Pat. No. 6,114,533.
[12] abbreviates: Day 0 (pre-treatment), female db/db mice, group later given standard compound 5 mg/kg or Compound 6 50 mg/kg by oral gavage.
Where [13] appears, read: Day 3, 3 h, oral gavage daily, standard compound 5 mg/kg, Compound 6 50 mg/kg.

In general, Ki refers to a measure of affinity in units of concentration, obtained from inhibition or displacement. A lower Ki goes with tighter binding. By EC50 is commonly meant the concentration needed to bring the measured effect to its halfway point. In the case of `COc1cc2c(cc1C(=C/C=C/C(C)=C/C(=O)O)C(F)(F)F)C(C)(C)CCC2(C)C` (stereo in doubt) [Compound 5, (2E,4E,6Z)-8,8,8-Trifluoro-7-(3-methoxy-5,5,8,8-tetramethyl-5,6,7,8-tetrahydro-naphthalen-2-yl)-3-methyl-octa-2,4,6-trienoic acid], the Ki was 484 nM in [1]; 1200 nM in data set [4]; 504 nM in data set [6]; 66 nM in [7]; 423 nM in data set [9]. For the same molecule, the EC50 worked out at 2 nM in [2], 0.6 nM in [3], 5 nM in [5] and 150 nM in data set [8]. For the same molecule, the “RXR γ transactivation efficacy as a percentage compared to the standard compound” value in data set [2] (setting [11]) is given as 121%. Moreover, in data set [3] (setting [11]), the “RXR α transactivation efficacy as a percentage compared to the standard compound” value came out at 112%. Besides, the “RXR β transactivation efficacy as a percentage compared to the standard compound” value in [5] (setting [11]) is on record as 111%. Also, the “RAR β transactivation efficacy as a percentage compared to the standard compound” value in [8] came to 32%.

With `CCCOc1cc2c(cc1C(=C/C=C/C(C)=C/C(=O)O)C(F)(F)F)C(C)(C)CCC2(C)C` (stereo in doubt) [Compound 7, (2E,4E,6Z)-8,8,8-Trifluoro-3-methyl-7-(5,5,8,8-tetramethyl-3-propoxy-5,6,7,8-tetrahydro-naphthalen-2-yl)-octa-2,4,6-trienoic acid], the inhibition constant (Ki) in data set [1] is 452 nM; in data set [4] it was above 10000 nM; in data set [6], 1800 nM; in [7], 22 nM; in data set [9], 115 nM. For the same molecule, in [8], a half-maximal effect (EC50) was put at 54 nM. Moreover, the “RAR β transactivation efficacy as a percentage compared to the standard compound” value in data set [8] is recorded as 9%.

`CC(/C=C/[C@@H]1C[C@]1(C)c1ccc2c(c1)C(C)(C)CCC2(C)C)=C\C(=O)O` [Standard compound]: in data set [10] (setting [12]), the “Glucose Day 0” value was 526 ± 135 mg/dL and the “Triglycerides Day 0” value amounted to 290 ± 55 mg/dL. Further, in [10] (setting [13]), the “Glucose Day 3, 3 h” value came out at 444 ± 125 mg/dL and the “Triglycerides Day 3, 3 h” value amounted to 590 ± 422 mg/dL. Also, in data set [10] (Day 6, 3 h, oral gavage daily, standard compound 5 mg/kg, Compound 6 50 mg/kg), the “Glucose Day 6, 3 h” value worked out at 399 ± 128 mg/dL. In data set [10] (Day 7, oral gavage daily for seven days, standard compound 5 mg/kg, Compound 6 50 mg/kg), the “T4 Day 7” value was determined as 1.5 ± 0.6 µg/dL. The “effect on serum thyroxine levels” value in [10] (diabetic mammals) was “reducing serum thyroxine levels”.
